Data from patent US20240190874A1, “SMALL MOLECULE DEGRADERS OF ANDROGEN RECEPTOR” (THE REGENTS OF THE UNIVERSITY OF MICHIGAN, priority 2021, published 2024).
Where two headings read alike, the source gives them in different places.

Experiments:
Format in all cases: cell-based
AR = molecular target: T1, AR (Homo sapiens, UniProt P10275); test: Degradation of AR in VCaP cells; conditions: VCaP cells; for Dmax: VCaP
T1 construct: Degradation of AR; Cellular potency; host or cells: VCaP cells
T1 sequence (P10275 1-920): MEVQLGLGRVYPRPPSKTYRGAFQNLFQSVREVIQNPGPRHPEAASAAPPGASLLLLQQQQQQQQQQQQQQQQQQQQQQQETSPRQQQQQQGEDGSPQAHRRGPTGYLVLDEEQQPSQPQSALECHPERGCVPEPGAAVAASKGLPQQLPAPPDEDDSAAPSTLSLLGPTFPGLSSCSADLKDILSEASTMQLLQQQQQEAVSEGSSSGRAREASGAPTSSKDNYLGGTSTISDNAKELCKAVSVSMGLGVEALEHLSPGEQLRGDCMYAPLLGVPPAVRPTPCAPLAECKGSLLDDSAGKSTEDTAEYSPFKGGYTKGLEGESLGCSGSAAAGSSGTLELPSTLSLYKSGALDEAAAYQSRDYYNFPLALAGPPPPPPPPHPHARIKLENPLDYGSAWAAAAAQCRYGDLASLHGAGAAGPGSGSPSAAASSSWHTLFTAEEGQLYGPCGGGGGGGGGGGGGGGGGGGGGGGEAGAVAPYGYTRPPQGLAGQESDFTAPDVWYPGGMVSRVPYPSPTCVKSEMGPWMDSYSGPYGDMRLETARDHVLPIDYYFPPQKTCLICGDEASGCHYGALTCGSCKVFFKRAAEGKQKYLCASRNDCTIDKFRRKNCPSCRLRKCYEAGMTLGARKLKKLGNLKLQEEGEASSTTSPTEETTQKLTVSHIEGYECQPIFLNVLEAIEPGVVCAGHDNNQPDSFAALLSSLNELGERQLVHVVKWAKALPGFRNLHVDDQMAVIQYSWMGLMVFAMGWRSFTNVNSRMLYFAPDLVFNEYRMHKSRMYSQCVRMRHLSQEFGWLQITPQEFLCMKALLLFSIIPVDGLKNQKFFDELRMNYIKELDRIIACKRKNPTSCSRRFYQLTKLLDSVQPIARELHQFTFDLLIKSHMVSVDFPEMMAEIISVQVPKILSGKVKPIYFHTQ
Method: (§1) Biological Assays. LNCaP and VCaP cells used were purchased from American Type Culture Collection (ATCC). LNCaP were grown in RPMI 1640 (Invitrogen) and VCaP cells were grown in DMEM with Glutamax (Invitrogen). All of the cells were supplemented with 10% fetal bovine serum (Invitrogen) at 37° C. in a humidified 5% CO2 incubator.

LNCaP cells = test: Cellular potency (IC50) in LNCaP cells
Method: as §1

VCaP cells = test: Cellular potency (IC50) in VCaP cells
Method: as §1

| SMILES | DC50 (AR) [nM] | IC50 (LNCaP cells; Homo sapiens, LNCaP) [nM] | IC50 (VCaP cells; Homo sapiens, VCaP) [nM] | Dmax (AR) [%] | Degradation of AR in VCaP cells Dmax (AR) | IC50 (LNCaP cells) [nM] | IC50 (VCaP cells) [nM] |
| --- | --- | --- | --- | --- | --- | --- | --- |
| C[C@H]1CC2(CCN(c3ccc(CN4CCC(N5CCN(c6ccc7c(c6)C(=O)N(C6CCC(=O)NC6=O)C7=O)CC5)CC4)cn3)CC2)CN1c1ccc(C#N)c(Cl)c1 (stereo partly shown) [compound 166] | < 10 | < 100 | < 10 | – | – | – | – |
| C[C@H]1CC2(CCN(c3ccc(CN4CCC(C5CCN(c6ccc7c(c6)C(=O)N(C6CCC(=O)NC6=O)C7=O)CC5)CC4)nc3)CC2)CN1c1ccc(C#N)c(Cl)c1 (stereo partly shown) [compound 181] | < 1 | < 10 | < 100 | – | – | – | – |
| C[C@H]1CC2(CCN(c3ccc(CN4CCN(C5CCN(c6cc7c(cc6F)C(=O)N(C6CCC(=O)NC6=O)C7=O)CC5)CC4)cn3)CC2)CN1c1ccc(C#N)c(Cl)c1 (stereo partly shown) [compound 165] | < 10 | < 10 | < 10 | – | – | – | – |
| C[C@H]1CC2(CCN(c3ccc(OC4CCN(C5CN(c6cc7c(cc6F)C(=O)N(C6CCC(=O)NC6=O)C7=O)C5)CC4)nn3)CC2)CN1c1ccc(C#N)c(Cl)c1 (stereo partly shown) [compound 134] | < 1 | < 10 | < 10 | > 90 | – | – | – |
| C=C1CCC(N2C(=O)c3ccc(N4CCC(C5CCN(Cc6ccc(N7CCC8(CC7)C[C@H](C)N(c7ccc(C#N)c(Cl)c7)C8)cc6)CC5)CC4)cc3C2=O)C(=O)N1 (stereo partly shown) [compound 17] | – | < 100 | < 100 | 70 to 90 | – | – | – |
| C[C@H]1CC2(CCN(c3ccc(CN4CCC(C5CN(c6ccc7c(c6)C(=O)N(C6CCC(=O)NC6=O)C7=O)C5)CC4)nc3)CC2)CN1c1ccc(C#N)c(Cl)c1 (stereo partly shown) [compound 177] | < 1 | < 10 | < 10 | – | – | – | – |
| C[C@H]1CC2(CCN(c3ccc(S(=O)(=O)N4CCC(CN5Cc6cc7c(cc6C5)C(=O)N(C5CCC(=O)NC5=O)C7=O)CC4)cc3)CC2)CN1c1ccc(C#N)c(Cl)c1 (stereo partly shown) [compound 3] | < 1 | < 10 | < 10 | > 90 | – | – | – |
| C[C@H]1CC2(CCN(c3ccc(CN4CCC(N5CCN(c6cc7c(cc6F)C(=O)N(C6CCC(=O)NC6=O)C7=O)CC5)CC4)nn3)CC2)CN1c1ccc(C#N)c(Cl)c1 (stereo partly shown) [compound 203] | < 1 | < 10 | < 10 | – | – | – | – |
| C[C@H]1CC2(CCN(c3ccc(N4CCN(CC5CCN(c6ccc7c(c6)C(=O)N(C6CCC(=O)NC6=O)C7=O)CC5)CC4)nc3)CC2)CN1c1ccc(C#N)c(Cl)c1 (stereo partly shown) [compound 35] | < 1 | < 10 | < 10 | > 90 | – | – | – |
| C[C@H]1CC2(CCN(c3ccc(OC4CCN(C5CN(c6ccc7c(c6)C(=O)N(C6CCC(=O)NC6=O)C7=O)C5)CC4)cc3)CC2)CN1c1ccc(C#N)c(Cl)c1 (stereo partly shown) [compound 57] | < 1 | < 10 | < 10 | > 90 | – | – | – |
| C[C@H]1CC2(CCN(c3ccc(OC4CN(C5CCN(c6ccc7c(c6)C(=O)N(C6CCC(=O)NC6=O)C7=O)CC5)C4)nc3)CC2)CN1c1ccc(C#N)c(Cl)c1 (stereo partly shown) [compound 72] | < 100 | < 1000 | < 1000 | 50 to 70 | – | – | – |
| C[C@H]1CC2(CCN(c3ccc(CN4CCC(CN5Cc6cc7c(cc6C5)C(=O)N(C5CCC(=O)NC5=O)C7=O)CC4)cc3)CC2)CN1c1ccc(C#N)c(Cl)c1 (stereo partly shown) [compound 20] | < 100 | < 100 | < 100 | 70 to 90 | – | – | – |
| C=C1CCC(N2C(=O)c3ccc(N4CCC(N5CCN(Cc6ccc(N7CCC8(CC7)C[C@H](C)N(c7ccc(C#N)c(Cl)c7)C8)cc6)CC5)CC4)cc3C2=O)C(=O)N1 (stereo partly shown) [compound 18] | – | < 10 | < 10 | > 90 | – | – | – |
| C[C@H]1CC2(CCN(c3ccc(N4CCN(CC5CCN(c6ccc7c(c6)C(=O)N(C6CCC(=O)NC6=O)C7=O)CC5)CC4)cc3)CC2)CN1c1ccc(C#N)c(Cl)c1 (stereo partly shown) [compound 30] | < 1 | < 10 | < 10 | > 90 | – | – | – |
| C[C@H]1CC2(CCN(c3ccc(OC4CCN(C5CN(c6cc7c(cc6F)C(=O)N(C6CCC(=O)NC6=O)C7=O)C5)CC4)cc3)CC2)CN1c1ccc(C#N)c(Cl)c1 (stereo partly shown) [compound 131] | < 1 | < 10 | < 10 | > 90 | – | – | – |
| C[C@H]1CC2(CCN(c3ccc(CN4CCC(C5CN(c6ccc7c(c6)C(=O)N(C6CCC(=O)NC6=O)C7=O)C5)CC4)cn3)CC2)CN1c1ccc(C#N)c(Cl)c1 (stereo partly shown) [compound 176] | < 10 | < 10 | < 10 | – | – | – | – |
| C[C@H]1CC2(CCN(c3ccc(CN4CCN(C5CCN(c6ccc7c(c6)C(=O)N(C6CCC(=O)NC6=O)C7=O)CC5)CC4)c(F)c3)CC2)CN1c1ccc(C#N)c(Cl)c1 (stereo partly shown) [compound 42] | < 10 | – | – | – | A (A = >90%) | < 100 | < 100 |
| C[C@H]1CC2(CCN(c3ccc(N4CCC(CN5Cc6cc7c(cc6C5)C(=O)N(C5CCC(=O)NC5=O)C7=O)CC4)nc3)CC2)CN1c1ccc(C#N)c(Cl)c1 (stereo partly shown) [compound 54] | < 10 | < 100 | < 100 | > 90 | – | – | – |
| C[C@H]1CC2(CCN(c3ccc(CN4CC(C5CCN(c6ccc7c(c6)C(=O)N(C6CCC(=O)NC6=O)C7=O)CC5)C4)cn3)CC2)CN1c1ccc(C#N)c(Cl)c1 (stereo partly shown) [compound 178] | < 10 | < 100 | < 100 | – | – | – | – |
| C[C@H]1CC2(CCN(c3ccc(S(=O)(=O)N4CCN(C5CN(c6ccc7c(c6)C(=O)N(C6CCC(=O)NC6=O)C7=O)C5)CC4)cc3)CC2)CN1c1ccc(C#N)c(Cl)c1 (stereo partly shown) [compound 2] | < 1 | < 10 | < 10 | > 90 | – | – | – |
| C[C@H]1CC2(CCN(c3cnc(C(=O)N4CCN(C5CN(c6ccc7c(c6)C(=O)N(C6CCC(=O)NC6=O)C7=O)C5)CC4)s3)CC2)CN1c1ccc(C#N)c(Cl)c1 (stereo partly shown) [compound 137] | < 10 | < 100 | < 100 | 70 to 90 | – | – | – |
| C[C@H]1CC2(CCN(c3ccc(N4CCC(CN5CCN(c6ccc7c(c6)C(=O)N(C6CCC(=O)NC6=O)C7=O)CC5)CC4)cn3)CC2)CN1c1ccc(C#N)c(Cl)c1 (stereo partly shown) [compound 51] | < 10 | < 100 | < 100 | > 90 | – | – | – |
| C[C@H]1CC2(CCN(c3ccc(CN4CCN(C5CN(c6ccc7c(c6)C(=O)N(C6CCC(=O)NC6=O)C7=O)C5)CC4)cc3)CC2)CN1c1ccc(C#N)c(Cl)c1 (stereo partly shown) [compound 6] | < 1 | – | – | – | – | < 10 | < 10 |
| C[C@H]1CC2(CCN(c3ccc(OC4CCN(C5CN(c6ccc7c(c6)C(=O)N(C6CCC(=O)NC6=O)C7=O)C5)CC4)nc3)CC2)CN1c1ccc(C#N)c(Cl)c1 (stereo partly shown) [compound 63] | < 1 | < 10 | < 10 | > 90 | – | – | – |
| C[C@H]1CC2(CCN(c3ccc(N4CCN(CC5CN(c6ccc7c(c6)C(=O)N(C6CCC(=O)NC6=O)C7=O)C5)CC4)cn3)CC2)CN1c1ccc(C#N)c(Cl)c1 (stereo partly shown) [compound 31] | < 1 | < 10 | < 10 | > 90 | – | – | – |
| C[C@H]1CC2(CCN(c3ccc(N4CCN(CC5CN(c6ccc7c(c6)C(=O)N(C6CCC(=O)NC6=O)C7=O)C5)CC4)nc3)CC2)CN1c1ccc(C#N)c(Cl)c1 (stereo partly shown) [compound 34] | < 1 | < 10 | < 10 | > 90 | – | – | – |
